Source: patent US6281214A, “Biphenyl derivatives” (Eisai Co., Ltd, priority 1994, dated 2001)
Where two headings read alike, the source gives them in different places.

Key:
Set-up in all cases: species or system SD rats
serotonin S2 receptor = molecular target: T1, serotonin S2 receptor (Rattus norvegicus, UniProt P14842); experiment: serotonin S2 receptor binding test ([3H] Ketanserin Binding Test); settings: 1 nM [3H] Ketanserin, rat cortex, 37° C., 15 minutes
T1 construct: The receptor fraction prepared from the cortex was molten and suspended; from tissue; host or cells: cerebral cortex of SD rats (membrane fraction)
Protocol: (§1) The compounds of the present invention were subjected to each of serotonin S2 receptor binding test, dopamine D2 receptor binding test and adrenergic α1 receptor binding test.
(§2) The following reagents were used in this test.
(§3) These reagents and samples were each dissolved in 10% ethanol before use. Among them, water-insoluble compounds were each dissolved in ethanol and the obtained solution was diluted with distilled water to an ethanol concentration of 10%. Further, Methylsergide maleate was used in a state dissolved in distilled water.
(§4) SD rats aged 6 to 8 weeks were used.
(§5) SD rats were each slaughtered with a guillotine to extirpate its cerebrum. The cortex and corpus striatum were separated from the cerebrum. The former was used in serotonin S2 receptor binding test and adrenergic α1, receptor binding test, while the latter was used in dopamine D2 receptor binding test.
(§6) The cortex was homogenized in a 0.32 M sucrose solution in an amount ten times the wet weight of the cortex by the use of a teflon glass homogenizer and the resulting mixture was centrifuged at 10,000×G for 20 minutes. The obtained sediment was suspended in 50 mM Tris hydrochloride (pH 7.4) in an amount ten times the initial wet weight of the cortex by the use of a histocothrom, and the obtained suspension was centrifuged at 10,000×G for 20 minutes. This operation was repeated twice. The obtained sediment was suspended in 50 mM Tris hydrochloride (pH 7.4) in an amount 20 times the initial wet weight of the cortex by the use of a histocothrom. The suspension thus prepared was used as a receptor fraction. This receptor fraction was stored at -80° C. until use.
4. [^3 ] Ketanserin Binding Test
The receptor fraction prepared from the cortex was molten and suspended by the use of a histocothrom. The resulting suspension was incubated together with 1 nM-[^3 H] Ketanserin at 37° C. for 15 minutes. The resulting reaction system was filtered through a Whatman GF/B glass filter with an MR-30R type cell harvester mfd. by Blandel. The resulting filter was washed twice with 5 ml of 50 mM Tris hydrochloride (ph 7.4) cooled with ice and the radioactivity of the Ketanserin bound the receptor was determined by the use of a liquid scintillation counter with 5 ml of ACS II. The binding detected in the presence of […] of Methylsergide was regarded as nonspecific binding.
(§7) Each IC50 value was calculated by the probit method and each Ki value was determined by the following formula: [formula]
(§8) In the above formula, C represents the concentration of radioligand, and Kd represents the affinity of radioligand for the receptor as determined by the Scatchard analysis.

dopamine D2 receptor = molecular target: T2, dopamine D2 receptor (Rattus norvegicus, UniProt P61169); experiment: dopamine D2 receptor binding test ([3H] Spiperone Binding Test); settings: 1 nM [3H] Spiperone, rat corpus striatum, room temperature, 60 minutes
T2 construct: the receptor fraction prepared from the corpus striatum was molten and suspended; from tissue; host or cells: corpus striatum of SD rats (membrane fraction)
Protocol: as §1, §2, §3, §4, §5
On the other hand, the corpus striatum was homogenized in a 0.32 M sucrose solution in an amount ten times the wet weight of the corpus striatum by the use of a teflon glass homogenizer and the obtained mixture was centrifuged at 1,000×G for 20 minutes. The obtained supernatant was centrifuged at 10,000×G for 20 minutes. The obtained sediments were suspended together in 50 mM Tris hydrochloride (pH 7.4) in an amount ten times the initial wet weight of the corpus striatum by the use of a histocothrom, and the obtained suspension was centrifuged at 10,000×G for 20 minutes. This operation was repeated thrice. The resulting sediment was suspended in 50 mM Krebs-Tris (pH 7.4) in an amount 100 times the initial wet weight of the corpus striatum by the use of a histocothrom. The obtained suspension was used as a receptor fraction. This receptor fraction was stored at -80° C. until use.
as §7, §8
5. [^3 H] Spiperone Binding Test
(§9) This test was conducted in the same manner as that of the binding test of [^3 H] Ketanserin except that the receptor fraction prepared from the corpus striatum was molten and suspended with a histocothrom, and the obtained suspension was incubated together with 1 nM-[^3 H], Spiperone at room temperature for 60 minutes and that the binding detected in the presence of 10 μl of Spiperone was regarded as nonspecific binding.

adrenergic α1 receptor = adrenergic α1 receptor binding test ([3H] Prazosin Binding Test); settings: 1 nM [3H] Prazosin, rat cortex, room temperature, 60 minutes
Protocol: as §1, §2, §3, §4, §5, §6, §7, §8
6. [^3 H] Prazosin Binding Test
as §9, with “cortex” for “corpus striatum”, “H] Prazosin” for “H], Spiperone”, “Phentolamine” for “Spiperone”

[1] = read-out: Ki value, dopamine D2 receptor

T1 sequence (P14842 whole entry): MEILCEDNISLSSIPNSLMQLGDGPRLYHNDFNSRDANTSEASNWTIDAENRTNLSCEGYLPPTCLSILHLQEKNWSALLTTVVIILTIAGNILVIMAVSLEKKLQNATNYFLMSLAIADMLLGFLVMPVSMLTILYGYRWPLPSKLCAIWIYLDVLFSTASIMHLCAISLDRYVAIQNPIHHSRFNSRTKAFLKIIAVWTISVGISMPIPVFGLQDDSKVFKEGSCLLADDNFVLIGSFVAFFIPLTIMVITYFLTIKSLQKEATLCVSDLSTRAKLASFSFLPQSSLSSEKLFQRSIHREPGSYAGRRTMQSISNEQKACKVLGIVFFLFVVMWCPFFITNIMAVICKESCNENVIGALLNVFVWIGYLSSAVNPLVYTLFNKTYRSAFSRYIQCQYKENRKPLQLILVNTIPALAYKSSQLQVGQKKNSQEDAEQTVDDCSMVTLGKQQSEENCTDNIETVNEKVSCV
T2 sequence (P61169 whole entry): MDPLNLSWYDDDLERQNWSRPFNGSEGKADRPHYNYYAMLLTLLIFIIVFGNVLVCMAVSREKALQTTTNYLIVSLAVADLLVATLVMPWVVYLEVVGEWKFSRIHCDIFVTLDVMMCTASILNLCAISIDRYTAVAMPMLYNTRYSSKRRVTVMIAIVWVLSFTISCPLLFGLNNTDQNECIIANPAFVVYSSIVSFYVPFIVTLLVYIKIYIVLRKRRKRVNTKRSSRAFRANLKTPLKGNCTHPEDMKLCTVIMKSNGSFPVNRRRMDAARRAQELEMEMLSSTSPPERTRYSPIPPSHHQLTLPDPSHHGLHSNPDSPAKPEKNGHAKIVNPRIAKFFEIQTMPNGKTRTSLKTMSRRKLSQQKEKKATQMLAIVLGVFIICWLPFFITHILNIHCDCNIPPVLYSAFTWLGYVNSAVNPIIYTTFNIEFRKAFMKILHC

Row | Compound | Ki (serotonin S2 receptor) [nM] | Ki (dopamine D2 receptor; [1]) [nM] | Ki (adrenergic α1 receptor) [nM] | Ki (dopamine D2 receptor; Ki value, dopamine D2 receptor) [nM]
1 | CCCc1cc(N2CCN(CC)CC2)cc(-c2ccc(F)cc2)c1OC [Example 65] | 26.6 | 6.6 | 79 | –
2 | CCN1CCN(c2cc(CCO)c(OC)c(-c3ccccc3)c2)CC1 [Example 66, 1-Ethyl-4-[3-phenyl-4-methoxy-5-(2-hydroxyethyl)]phenylpiperazine] | 65.9 | 18.3 | 127 | –
3 | CCN1CCN(c2cc(CCO)cc(-c3ccccc3)c2OC)CC1 [Example 67, 1-Ethyl-4-[2-methoxy-3-phenyl-5-(2-hydroxyethyl)]phenylpiperazine] | > 1000 | > 1000 | 687 | –
4 | CCN1CCN(c2cc(CCCOC)c(OC)c(-c3ccccc3)c2)CC1 [Example 68, 1-Ethyl-4-[3-phenyl-4-methoxy-5-(3-methoxypropyl)]phenylpiperazine] | 32 | 35.1 | 195 | –
5 | CCN1CCN(c2cc(CCCOCOC)c(OC)c(-c3ccccc3)c2)CC1 [Example 69, 1-Ethyl-4-[3-phenyl-4-methoxy-5-(3-methoxymethoxypropyl)]phenylpiperazine] | 67.1 | 171 | 321 | –
6 | CCc1cc(N2CCN(CC)CC2)cc(-c2ccccc2)c1OC [Example 70] | 128 | – | 322 | 41.9
7 | CCN1CCN(c2cc(CCCC#N)c(OC)c(-c3ccccc3)c2)CC1 [Example 71, 1-Ethyl-4-[3-phenyl-4-methoxy-5-(3-cyanopropyl)]phenylpiperazine] | 90.9 | 14.7 | 131 | –
8 | CCCc1cc(N2CCN(CCF)CC2)cc(-c2ccc(F)cc2)c1OC [Example 72, 1-(2-Fluoroethyl)-4-[3-(4-fluorophenyl)-4-methoxy-5-propyl]phenylpiperazine] | 108 | – | 270 | 50.3
9 | CCCc1cc(N2CCN(CC)CC2)cc(-c2ccc(OC)cc2)c1OC [Example 73, 1-Ethyl-4-[3-(4-methoxphenyl)-4-methoxy-5-propyl]phenylpiperazine] | 635 | 577 | 332 | –
10 | CCN1CCN(c2cc(C(=O)OC)c(OC)c(-c3ccccc3)c2)CC1 [Example 74, 1-Ethyl-4-(3-phenyl-4-methoxy-5-methoxycarbonyl)phenylpiperazine] | 374 | > 1000 | > 1000 | –
11 | CCN1CCN(c2cc(CC(C)O)c(OC)c(-c3ccccc3)c2)CC1 (stereo not drawn) [Example 75, 1-Ethyl-4-[3-phenyl-4-methoxy-5-(2-hydroxypropyl)]phenylpiperazine] | 486 | > 1000 | > 1000 | –
12 | CCN1CCN(c2cc(CCF)c(OC)c(-c3ccccc3)c2)CC1 [Example 76, 1-Ethyl-4-[3-phenyl-4-methoxy-5-(2-fluoroetheyl)]phenylpiperazine] | 145 | 50.1 | 112 | –
13 | CCN1CCN(c2cc(CCCF)c(OC)c(-c3ccccc3)c2)CC1 [Example 77, 1-Ethyl-4-[3-phenyl-4-methoxy-5-(3-fluoropropyl)]phenylpiperazine] | 24.3 | 40 | 182 | –
14 | CCN1CCN(c2cc(-c3ccc(F)cc3)c(OC)c(C(C)C)c2)CC1 [Example 78, 1Ethyl-4-[3-(4-fluorophenyl)-4-methoxy-5-isopropyl]phenylpiperazine] | 33.2 | 4.22 | 74.8 | –
15 | CCN1CCN(c2cc(-c3ccc(F)cc3)c(OC)cc2C(C)C)CC1 [Example 79] | 192 | 28.5 | 69.8 | –
16 | CCN1CCN(c2cc(-c3ccccc3)c(OC)c(C(C)(C)O)c2)CC1 [Example 80] | 177 | 810 | > 1000 | –
17 | CCCCOC(CC)c1cc(N2CCN(CC)CC2)cc(-c2ccccc2)c1OC (stereo not drawn) [Example 81] | 241 | 38.3 | > 1000 | –
18 | CCC(=O)c1cc(N2CCN(CC)CC2)cc(-c2ccccc2)c1OC [Example 82, 1-Ethyl-4-(3-phenyl-4methoxy-5-propionyl)phenylpiperazine] | 10.7 | 39.1 | 723 | –
19 | CCC(O)c1cc(N2CCN(CC)CC2)cc(-c2ccccc2)c1OC (stereo not drawn) [Example 83, 1-Ethyl-4-[3-phenyl-4methoxy-5-(1-hydroxypropyl)]phenylpiperazine] | 84.5 | 485 | > 1000 | –
20 | CCCc1cc(N2CCN(CC)CC2)cc(-c2ccccc2F)c1OC [Example 84, 1-Ethyl-4-[3-(2-fluorophenyl)-4-methoxy-5-propyl]phenylpiperazine] | 66.2 | 44.6 | > 1000 | –
21 | CCCc1cc(N2CCN(CC)CC2)cc(-c2ccc(C(F)(F)F)cc2)c1OC [Example 85, 1-Ethyl-4-[3-(4-trifluoromethylphenyl)-4-methoxy-5-propyl]phenylpiperazine] | > 1000 | > 1000 | > 1000 | –
22 | CCN1CCN(c2cc(-c3ccccc3)c(OC)c(C(C)(C)F)c2)CC1 [Example 86, 1-Ethyl-4-[3-phenyl-4-methoxy-5-(1-fluoroisopropyl)]phenylpiperazine] | 29.4 | 10.5 | > 1000 | –
23 | CCN1CCN(c2cc(-c3ccccc3)c(OC)c(C(C)CO)c2)CC1 (stereo not drawn) [Example 87] | 283 | 135 | > 1000 | –
24 | CCC(F)c1cc(N2CCN(CC)CC2)cc(-c2ccccc2)c1OC (stereo not drawn) [Example 88, 1-Ethyl-4-[3-phenyl-4-methoxy-5-(1-fluoropropyl)]phenylpiperazine] | 8.33 | 7.35 | 493 | –
25 | CCN1CCN(c2cc(C#N)c(OC)c(-c3ccccc3)c2)CC1 [Example 89, 1-Ethyl-4-(3-phenyl-4-methoxy-5-cyano)phenylpiperazine] | 310 | – | > 1000 | 44.6
26 | CCN1CCN(c2cc(-c3ccccc3)c(OC)c(-c3ccco3)c2)CC1 [Example 90] | 685 | 263 | > 1000 | –
27 | CCCc1cc(N2CCN(CC)CC2)cc(-c2ccc(F)cc2F)c1OC [Example 91, 1-Ethyl-4-[3-(2,4-difluorophenyl)-4-methoxy-5-propyl]phenylpiperazine] | 37.1 | 7.34 | 323 | –
28 | CCN1CCN(c2cc(C(=O)Cc3ccccc3)c(OC)c(-c3ccccc3)c2)CC1 [Example 92, 1-Ethyl-4-(3-phenyl-4-methoxy-5-phenylacetyl)phenylpiperazine] | 1.14 | 2.71 | 942 | –
29 | CCN1CCN(c2cc(C(=O)Cc3ccc(F)cc3)c(OC)c(-c3ccccc3)c2)CC1 [Example 93, 1-Ethyl-4-[3-phenyl-4-methoxy-5-(4-fluorophenyl)acetyl]phenylpiperazine] | 1.31 | 28 | 719 | –
30 | CCN1CCN(c2cc(-c3ccccc3)c(OC)c(C(O)Cc3ccccc3)c2)CC1 (stereo not drawn) [Example 94, 1-Etyl-4-[3-phenyl-4-methoxy-5-(1-hydroxyphenethyl)]phenylpiperazine] | 109 | 13.8 | 600 | –
